Columns and labels:
purified casein kinase 1 = target: T1, purified casein kinase 1 (Rattus norvegicus, UniProt Q06486); assay: In vitro kinase assay with purified casein kinase 1, p80Δ5 as substrate; assay type: biochemical; conditions: 100 μM inhibitor; 10 units purified casein kinase 1; read-out: inhibition of purified casein kinase 1, measured by phosphorylation of p80Δ5
T1 construct: purchased New England Biolabs, Beverly, Mass
T1 sequence (Q06486 1-317 limits assumed): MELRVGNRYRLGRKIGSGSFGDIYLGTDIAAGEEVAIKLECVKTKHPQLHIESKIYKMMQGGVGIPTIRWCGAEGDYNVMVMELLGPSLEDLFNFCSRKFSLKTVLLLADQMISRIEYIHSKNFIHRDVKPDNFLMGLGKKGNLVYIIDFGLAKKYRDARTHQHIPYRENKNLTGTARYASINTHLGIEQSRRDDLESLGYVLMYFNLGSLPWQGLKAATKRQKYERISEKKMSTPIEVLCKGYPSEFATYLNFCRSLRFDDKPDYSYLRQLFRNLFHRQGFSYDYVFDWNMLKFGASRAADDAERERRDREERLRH
Procedure: (§1) An in vitro kinase assay with 10 units of purified casein kinase 1 (FIG. 11A) or p80TRAK precipitated from U937 cells with p80Δ5 (FIG. 8B) with p80Δ5 as a substrate was performed in the presence of the indicated concentration of casein kinase 1-7 dissolved in DMSO. The asterisk represents a control in which DMSO was added to a final concentration of 1.6%. Reaction mixtures were analyzed by 9% sodium dodecyl sulfate-polyacrylamide gel electrophoresis, and the dried gel was exposed to a PhosphorImager screen. The phosphorylation of p80Δ5 was quantitated by ImageQuant Software (Molecular Dynamics, Sunnyvale, Calif.) .
(§2) Standard kinase assays were carried out for 10 minutes at 37° C. in 50 μl containing 20 mM HEPES, pH 7.4, 10 mM MgCl2, 0.2 mM ATP, 0.2 mM NaF, 0.1 mM sodium orthovanadate, and 10 μCi [γ-^32 P]ATP or as described. Reactions were stopped with 15 μl SDS-sample buffer, boiled for 5 minutes and then subjected to SDS-PAGE. Protein bands were visualized by staining with Coomassie Blue and the dried gels were analyzed by a Phosphorimager (Molecular Dynamics, Sunnyvale, Calif.). Labeled protein bands were quantitated by using ImageQuant Software (Molecular Dynamics, Sunnyvale, Calif.). […]

p80TRAK = assay: In vitro kinase assay with p80TRAK precipitated from U937 cells with p80Δ5, p80Δ5 as substrate; assay type: biochemical
Procedure: as §1, §2

[1] = tested on: p80 receptor phosphorylation, SW480T cells; conditions: pretreatment of SW480T cells; cited from earlier work

NCCNS(=O)(=O)c1ccc(Cl)c2ccncc12 [casein kinase 1-7]
inhibition at 100 µM (purified casein kinase 1): 80% | effect on p80TRAK activity as measured by phosphorylation of p80Δ5 (in words) (p80TRAK): inhibited | inhibition of p80TRAK, measured by phosphorylation of p80Δ5 (p80TRAK; 100 μM inhibitor, p80TRAK precipitated from U937 cells): 50%

CN[C@@H]1C[C@H]2O[C@@](C)([C@@H]1OC)n1c3ccccc3c3c4c(c5c6ccccc6n2c5c31)C(=O)NC4 [staurosporine]
extent of phosphorylation of the p80 receptor [1]: reduced

— patent publication US5837817A, “Tumor necrosis factor receptor-II-associated protein kinase and methods for its use” (Research Development Foundation, priority 1996, dated 1998)
